From US12071431B2, “Pyridin-sulfonamide compounds for the treatment of conditions related to interleukin 1 beta” (ALLINKY BIOPHARMA, priority 2018, dated 2024)
pIC50: −log10 of the molar value.

What was measured:
IL-1β = test: In vitro inhibition of IL-1β in human primary macrophages challenged with LPS (ELISA); assay type: cell-based; conditions: Primary macrophage, 2 hours compound pre-treatment, 100 ng/mL LPS, 16 hours, read-out: IC50 (IL-Iβ inhibition)
Experimental: Example 12—In Vitro Inhibition of IL-1β in Human Primary Macrophages Challenged with LPS
5 mL of RPMI media without serum (1:1) was added to a sample of 5 mL of human whole blood in EDTA or sodium citrate and mixed well by inversion. 3 mL of Histopaque-1077 was added to a 15 mL conical centrifuge tube and brought to room temperature. Using a transfer pipette, 10 mL of the blood-RPMI mixture was carefully layered onto the Histopaque-1077 and was centrifuged at 400×g for exactly 30 minutes at room temperature.
After centrifugation, a pasteur pipette was used to aspirate the upper layer to within 0.5 cm of the opaque interface containing the mononuclear cells. The upper layer was discarded. With a Pasteur pipette, the opaque interface was carefully transferred to a clean conical centrifuge tube. 5 mL RPMI was added to the tube and mixed by inversion, followed by centrifugation at 250×g for exactly 10 minutes. The supernatant was aspirated and discarded.
The leukocyte pellet was re-suspended with 5 mL RPMI and mixed gently with a Pasteur pipette, followed by centrifugation at 250×g for exactly 10 minutes. The pellet was washed 3× with PBS and re-suspended in RPMI medium.
2×10^5 PBMCs at a total volume of 200 μL/well were plated into a 96-well plate and incubated for 4 hrs at 37° C. in a CO2 incubator to allow the monocytes to settle, leaving the lymphocytes in suspension. Following incubation, 100 μL were aspirated out of each well to ensure removal of the lymphocyte population.
The monocytes were differentiated to macrophages by addition of 200 ng/mL of recombinant human GM-CSF (4 mg/mL stock) and incubated at 37° C./5% CO2 for 6 days. The medium was changed every two days by removing half the volume of medium in the well and re-supplementing with fresh RPMI complete medium and recombinant human GM-CSF.
Following differentiation, the cells were treated in duplicates with a compound according to the invention in a total volume of 50 μL, maintaining a final DMSO percentile of 0.5%. The plate was transferred to an incubator maintained at 37° C./5% CO2 for 2 hours. The cells were stimulated with 100 ng/mL of LPS (4×) (1 mg/mL stock) in a total volume of 50 μL.
The plate was transferred to an incubator maintained at 37° C./5% CO2 for 16 hours.
• 1. Each well from a pre-coated ELISA plate was aspirated and washed with wash buffer (0.05% Tween 20 in PBS; pH 7.2-7.4) by filling each well with wash buffer (300 μL). The process was repeated two times for a total of three washes. The liquid was removed completely at each step. After the last wash, any remaining wash buffer was removed. • 2. Plates were blocked by adding 300 μL of block buffer (1% BSA in PBS) to each well and incubated at room temperature for 1 hour. • 3. The aspiration/wash as in step 1 was repeated. • 4. 100 μL of sample or standard prepared in reagent diluent (0.1% BSA, 0.05% Tween 20 in PBS pH7.2-7.4) was added. The wells were covered with an adhesive strip and incubated for 2 hours at room temperature. • 5. The aspiration/wash as in step 1 was repeated. • 6. 100 μL of detection antibody, diluted in reagent diluent, was added to each well. The wells were covered with a new adhesive strip and incubated for 2 hours at room temperature. • 7. The aspiration/wash as in step 1 was repeated. • 8. 100 μL of the working dilution (1:200 from the stock) and streptavidin-HRP was added to each well. The plate was covered and incubated for 20 minutes at room temperature. • 9. 100 μL of substrate solution (1:1 mixture of H2O2 and tetramethylbenzidine) was added to each well and incubated for 20 minutes at room temperature. • 10.50 μL of stop solution (2N H2SO4) was added to each well. The plate was tapped gently to ensure thorough mixing. • 11. The optical density of each well was determined immediately using a microplate reader (Spectramax Plus) set to 450 nm. Cytokine Viability Assessment […]

[1] = tested on: human primary macrophages; test: Cell viability assessment (CellTiter-Glo) in the macrophage assay plates; assay type: cell-based; parameters: concentration or dose not given beside the values; conditions: CellTiter-Glo luminescent assay
Experimental: 2×10^5 PBMCs at a total volume of 200 μL/well were plated into a 96-well plate and incubated for 4 hrs at 37° C. in a CO2 incubator to allow the monocytes to settle, leaving the lymphocytes in suspension. Following incubation, 100 μL were aspirated out of each well to ensure removal of the lymphocyte population. The monocytes were differentiated to macrophages by addition of 200 ng/mL of recombinant human GM-CSF (4 mg/mL stock) and incubated at 37° C./5% CO2 for 6 days. The medium was changed every two days by removing half the volume of medium in the well and re-supplementing with fresh RPMI complete medium and recombinant human GM-CSF. Following differentiation, the cells were treated in duplicates with a compound according to the invention in a total volume of 50 μL, maintaining a final DMSO percentile of 0.5%. The plate was transferred to an incubator maintained at 37° C./5% CO2 for 2 hours. The cells were stimulated with 100 ng/mL of LPS (4×) (1 mg/mL stock) in a total volume of 50 μL. The plate was transferred to an incubator maintained at 37° C./5% CO2 for 16 hours. 100 μl/well volume of CellTiter-Glo® luminescent reagent was added to the assay plates and incubated at room temperature for 30 mins on a plate shaker. Following incubation, the luminescent signal of each well was determined using a microplate reader (Perkin Elmer ENVISION 2104). Cytotoxicity of the test compounds was determined utilizing the following formula: % Cytotoxicity=100−(100*(Average Test Compound Counts−Average Negative Control Counts)/(Average Positive Control Counts−Average Negative Control Counts)) All of the “Counts” stated in this formula are derived from “luminescent signal” determined as described for the cytokine viability assessment.

CCOc1ccc(Oc2cc(S(=O)(=O)N(C)C)cnc2N2CCC(Oc3ccc(Cl)cc3)CC2)cc1 [Compound 7]
pIC50 (IL-1β): 7.57 | Cell viability [1]: 100%
